Experimental data reported in ChEMBL document CHEMBL1122541, “Peptide sweeteners. 7. Taste relationships of trifluoroacetyl-L-aspartylanilides” (J Med Chem, 1984).
Each block holds one molecule with its values, some of them ahead of it.

What was measured:
[1] = compound taste was tested with reference of sucrose sweetness; + / - - = sweet / bitter
[2] = Value represents the number of times the compound was as sweet as sucrose
[3] = compound taste was tested with reference of sucrose sweetness; - = bitter
[4] = Compound taste was tested with reference of sucrose sweetness; + / - = Sweet/ bitter
[5] = Compound taste was tested with reference of sucrose sweetness; + / - - = Sweet/very bitter
[6] = Compound taste was tested with reference of sucrose sweetness; + / - = Sweet/bitter
[7] = Compound taste was tested with reference of sucrose sweetness; - = Bitter
[8] = Value represents the number of times the compound was as sweet as sucrose; +/- - - = Sweet/ very bitter
[9] = Compound taste was tested with reference of sucrose sweetness; +/ - - = Sweet/ very bitter
[10] = Compound taste was tested with reference of sucrose sweetness; +/- = Sweet/bitter
[11] = Value represents the number of times the compound was as sweet as sucrose.

Structure (SMILES): Cc1cc([N+](=O)[O-])ccc1NC(=O)C(CC(=O)O)NC(=O)C(F)(F)F (centres undefined)
Taste [1]: + / - -

Structure (SMILES): O=C(O)CC(NC(=O)C(F)(F)F)C(=O)Nc1ccccc1[N+](=O)[O-] (centres undefined)
Taste [3]: Bitter

Structure (SMILES): Cc1cc(NC(=O)C(CC(=O)O)NC(=O)C(F)(F)F)ccc1[N+](=O)[O-] (centres undefined)
Taste [5]: + / - -

Structure (SMILES): O=C(O)CC(NC(=O)C(F)(F)F)C(=O)Nc1ccccc1Cl (centres undefined)
Taste [7]: Bitter

Structure (SMILES): O=C(O)CC(NC(=O)C(F)(F)F)C(=O)Nc1ccc([N+](=O)[O-])c([N+](=O)[O-])c1 (centres undefined)
Taste [9]: + / - -

Structure (SMILES): O=C(O)CC(NC(=O)C(F)(F)F)C(=O)Nc1ccc([N+](=O)[O-])cc1 (centres undefined)
Taste [11]: 1500

Results, then the molecule that gave them:

Taste [2]: 12
Structure (SMILES): O=C(O)CC(NC(=O)C(F)(F)F)C(=O)Nc1ccccc1 (centres undefined)

Taste [4]: + / -
Structure (SMILES): Cc1cccc(NC(=O)C(CC(=O)O)NC(=O)C(F)(F)F)c1 (centres undefined)

Taste [6]: + / -
Structure (SMILES): O=C(O)CC(NC(=O)C(F)(F)F)C(=O)Nc1cccc(Cl)c1 (centres undefined)

Taste [7]: Bitter
Structure (SMILES): N#Cc1ccccc1NC(=O)C(CC(=O)O)NC(=O)C(F)(F)F (centres undefined)

Taste [8]: +/- - -
Structure (SMILES): O=C(O)CC(NC(=O)C(F)(F)F)C(=O)Nc1cccc([N+](=O)[O-])c1 (centres undefined)

Taste [2]: 3000
Structure (SMILES): N#Cc1ccc(NC(=O)C(CC(=O)O)NC(=O)C(F)(F)F)cc1 (centres undefined)

Taste [2]: 120
Structure (SMILES): O=C(O)CC(NC(=O)C(F)(F)F)C(=O)Nc1ccc(Cl)cc1 (centres undefined)

Taste [10]: +/-
Structure (SMILES): N#Cc1cccc(NC(=O)C(CC(=O)O)NC(=O)C(F)(F)F)c1 (centres undefined)
